This is an account of results in patent publication US20040023983A1, “Methods of use of fluoroquinolone compounds against pathogenic helicobacter bacteria” (priority 2003, published 2004).

≈ marks a conversion by molar mass, not a printed value.

Assay [1] has as its system H. pylori. Description: NCCLS agar dilution MIC, 21 H. pylori strains. The assay is classed as cell-based, Helicobacter pylori. The settings on record: 21 isolates of H. pylori, read at 72 hours; for MIC50 / MIC90: Helicobacter pylori. An excerpt:
(§1) The aim of the present invention is to evaluate the susceptibility of H. pylori to the new fluoroquinolone gemifloxacin (SB-265805). Twenty-one (21) H. pylori strains were obtained, including 16 clinical isolates CCUG 39297, CCUG 30988 (Lelwala-Guruge, J., Ljungh, A., & Wadstrom, T. 1992. APMIS 100, 908-13), CCUG 17875 (Lelwala-Guruge, J., Ljungh, A., & Wadstrom, T. 1992. APMIS 100, 908-13; Ilver, D., Arnqvist, A., Ogren, J., Frick, I. M., Kersulyte, D., Incecik, E. T. et al. 1998. Science 279, 373-7), CCUG 38771, CCUG 15818, CCUG 17874 (Lelwala-Guruge, J., Ljungh, A., & Wadstrom, T. 1992. APMIS 100, 908-13; O'Toole, P. W., Logan, S. M., Kostrzynska, M., Wadström, T., & Trust, T. J. 1991. Journal of Bacteriology 173, 505-513), CCUG 19087, CCUG 30987 (Lelwala-Guruge, J., Ljungh, A., & Wadstrom, T. 1992. APMIS 100, 908-13), CCUG 38772, CCUG 18943, CCUG 18295, CCUG 36718, CCUG 36719, CCUG 35899, CCUG 36720, CCUG 39924; and laboratory strains Not18, Not34, ATCC 43504, SS1, and ATCC 700392/26695. These strains include gastric biopsy isolates from the USA, Sweden, France, Belgium, UK, South Africa, and Australia Two of the clinical isolates are reported to have the cagA^+ genotype (strains CCUG 17874 and CCUG 17875) and three to be cagA^− (strains CCUG 36720, CCUG 36719, and CCUG 30988), but the cag genotype of the rest is unknown. […] The activities of amoxycillin, tetracycline and metronidazole against H. pylori ATCC 43504 were also tested as controls. The agar plates were inoculated using a Steers replicator and read at 72 hours.
In general terms: In agar dilution the substance is mixed into plates at graded concentrations.

Assay [2] has as its system H. pylori ATCC 43504. Kind of assay: NCCLS agar dilution MIC, control antibiotics against quality control strain. The assay is classed as cell-based. The settings on record: Helicobacter pylori, ATCC43504, read at 72 hours.
Excerpt: as §1

On to `CO/N=C1\CN(c2nc3c(cc2F)c(=O)c(C(=O)O)cn3C2CC2)CC1CN` (racemic) [Gemifloxacin, (R,S)-7-(3-aminomethyl-4-methoxyiminopyrrolidin-1-yl)-1-cyclopropyl-6-fluoro-4-oxo-1,4-dihydro-1,8-naphthyridine-3-carboxylic acid], for which, in assay [1], the “MIC Range” value was 0.03 to 1.0 µg/mL; the MIC50 (usually the lowest concentration that inhibits either 50% of growth or 50% of the strains tested, depending on the study) turned out to be 0.06 µg/mL (≈ 0.154 µM); the MIC90 – broadly, the lowest concentration that inhibits either 90% of growth or 90% of the strains tested, depending on the study – came to 0.13 µg/mL (≈ 0.334 µM).

In the case of `COc1c(N2CCNC(C)C2)c(F)cc2c(=O)c(C(=O)O)cn(C3CC3)c12` (stereo not drawn) [Gatifloxacin], in assay [1], the “MIC Range” value was 0.03 to 0.5 µg/mL, the MIC50 was 0.13 µg/mL (≈ 0.346 µM) and the MIC90 turned out to be 0.13 µg/mL (≈ 0.346 µM).

`C[C@H]1COc2c(N3CCN(C)CC3)c(F)cc3c(=O)c(C(=O)O)cn1c23` [Levofloxacin]: in assay [1], the “MIC Range” value was 0.13 to 2.0 µg/mL, the MIC50 is 0.25 µg/mL (≈ 0.692 µM) and the MIC90 is 0.5 µg/mL (≈ 1.38 µM).

As to `COc1c(N2C[C@@H]3CCCN[C@@H]3C2)c(F)cc2c(=O)c(C(=O)O)cn(C3CC3)c12` [Moxifloxacin], in assay [1], the “MIC Range” value fell in the range of 0.13 to 2.0 µg/mL, the MIC50 worked out at 0.25 µg/mL (≈ 0.623 µM) and the MIC90 was 0.5 µg/mL (≈ 1.25 µM).

As to `CC1(C)S[C@@H]2[C@H](NC(=O)[C@H](N)c3ccc(O)cc3)C(=O)N2[C@H]1C(=O)O` [amoxycillin], in assay [2], the MIC (usually the least concentration at which growth counts as inhibited) stood at 0.06 µg/mL (≈ 0.164 µM).

In assay [2], `Cc1ncc([N+](=O)[O-])n1CCO` [metronidazole] showed an MIC of 256 µg/mL (≈ 1500 µM).

`CN(C)[C@@H]1C(O)=C(C(N)=O)C(=O)[C@@]2(O)C(O)=C3C(=O)c4c(O)cccc4[C@@](C)(O)[C@H]3C[C@@H]12` [tetracycline] displayed an MIC in assay [2] of 1 µg/mL (≈ 2.25 µM).
